This note sets out measurements from US12528801B2 (Givaudan SA, priority 2019, dated 2026).

The target of this test is T1, hTRPM8 (Homo sapiens, UniProt Q7Z2W7).
T1 construct: expressed in transfected cells
The test can be described thus: Assay on TRPM8 modulators: calcium imaging (Fluo-4, Flexstation) in HEK293 cell line stably expressing hTRPM8. The class given is cell-based. The following applies: HEK293 cells stably expressing hTRPM8; calcium influx, Fluo-4, Flexstation 3; sigmoidal dose-response fit. The method, then:
A HEK293 cell line stably expressing hTRPM8 was generated according to Klein of at, (Chem. Senses 36: […], 2011) and receptor activation was monitored by calcium imaging in a Flexstation. For Ca-imaging assays of TRPM8 channel activation, cells were seeded on day 0 at a density of 12000 cells per well in Dulbecco's modified Eagle medium (DMEM) containing 9% foetal bovine serum in black, clear bottom 96-well plates that had been coated with 0.001% polyethyleneimine (molecular weight=60 000, Acros Organics). On day 2, agonists were evaluated via calcium imaging using Fluo-4. Briefly, growth medium was discarded, and the cells were incubated in the dark for 1 h at 37° C. in 50 μL loading buffer consisting of 2.7 μM Fluo-4 AM (Invitrogen) and […] probenecid (Sigma-Aldrich) in DMEM (without serum). After incubation, the plates were washed five times with 100 μL of assay buffer (in mM: 130 NaCl, 5 KCl, 10 HEPES, 2 CaCl2, and 10 glucose, pH7.4.) and further incubated in the dark at room temperature for 30 min. The cells were then washed five times with 100 μL assay buffer and then calcium influx to serial dilutions of inventive compounds were measured in a Flexstation 3 (Molecular Devices). Receptor activation was initiated following addition of 20 μl of a 10-fold concentrated ligand stock solution, which is also prepared in assay buffer. Fluorescence was continuously monitored for 15 seconds prior to ligand addition and for 105 seconds after ligand addition, for a total of 120 seconds. Maximal receptor activation in relation to solvent control and relative to 31.6 μM menthol is determined. Data from serial dilutions were processed with a KNIME workflow to fit a sigmoidal dose-response curve and to extrapolate […].

T1 sequence (Q7Z2W7 whole entry): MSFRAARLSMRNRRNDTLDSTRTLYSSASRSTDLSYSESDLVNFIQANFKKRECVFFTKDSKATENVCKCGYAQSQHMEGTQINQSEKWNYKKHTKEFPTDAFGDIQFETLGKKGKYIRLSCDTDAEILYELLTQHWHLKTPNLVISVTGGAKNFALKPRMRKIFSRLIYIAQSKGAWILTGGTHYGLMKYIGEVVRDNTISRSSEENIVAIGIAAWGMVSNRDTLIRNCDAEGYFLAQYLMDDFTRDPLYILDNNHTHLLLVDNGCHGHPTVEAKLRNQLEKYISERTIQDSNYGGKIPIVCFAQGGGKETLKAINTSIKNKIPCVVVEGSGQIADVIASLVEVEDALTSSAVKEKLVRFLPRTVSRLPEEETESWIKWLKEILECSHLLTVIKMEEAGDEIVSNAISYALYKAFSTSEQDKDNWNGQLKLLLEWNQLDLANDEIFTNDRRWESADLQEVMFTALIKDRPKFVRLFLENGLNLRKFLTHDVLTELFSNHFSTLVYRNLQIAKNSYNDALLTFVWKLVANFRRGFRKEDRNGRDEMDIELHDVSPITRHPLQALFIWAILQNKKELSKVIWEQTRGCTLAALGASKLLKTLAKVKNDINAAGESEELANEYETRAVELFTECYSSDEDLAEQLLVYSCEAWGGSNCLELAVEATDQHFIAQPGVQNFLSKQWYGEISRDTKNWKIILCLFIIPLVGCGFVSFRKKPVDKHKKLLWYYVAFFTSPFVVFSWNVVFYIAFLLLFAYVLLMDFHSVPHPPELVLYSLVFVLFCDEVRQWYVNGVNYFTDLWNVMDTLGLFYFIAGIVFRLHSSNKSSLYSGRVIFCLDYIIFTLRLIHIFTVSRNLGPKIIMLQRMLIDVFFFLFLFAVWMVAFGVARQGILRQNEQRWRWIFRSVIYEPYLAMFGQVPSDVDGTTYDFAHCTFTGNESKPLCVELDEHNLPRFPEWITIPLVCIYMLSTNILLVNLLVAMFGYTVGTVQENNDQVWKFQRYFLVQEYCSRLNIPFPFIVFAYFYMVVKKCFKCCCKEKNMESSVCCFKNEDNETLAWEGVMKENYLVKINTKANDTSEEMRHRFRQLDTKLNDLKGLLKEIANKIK

A word on the EC50: it is the midpoint of the concentration-response curve. For `CO[C@@H]1C[C@H]1C(=O)N1CCCCC1c1nc(-c2ccccc2)c[nH]1` (relative stereo) [Compound 5, (trans-2-methoxycyclopropyl)(2-(4-phenyl-1H-imidazol-2-yl)piperidin-1-yl)methanone], the EC50 is 1000 to 35000 nM.

With `N#C[C@@H]1C[C@@H]1C(=O)N1CCCCC1c1nc(-c2ccccc2)c[nH]1` (relative stereo) [Compound 90, cis-2-(2-(4-phenyl-1H-imidazol-2-yl)piperidine-1-carbonyl)cyclopropane-1-carbonitrile], the EC50 lay in the range of 1000 to 35000 nM.

On to `O=C(c1cnns1)N1CCCCC1c1nc(-c2ccccc2)c[nH]1` (centres unmarked) [Compound 1, (2-(4-phenyl-1H-imidazol-2-y)piperidin-1-yl)(1,2,3-thiadiazol-5-yl)methanone], for which the EC50 was 1000 to 35000 nM.

As for `O=C(C1CSC1)N1CCCCC1c1nc(-c2ccccc2)c[nH]1` (centres unmarked) [Compound 2, (2-(4-phenyl-1H-imidazol-2-yl)piperidin-1-yl)(thietan-3-yl)methanone], the 50% effective concentration (EC50) fell in the range of 300 to 1000 nM.

For the compound `CC1(C)CC1C(=O)N1CCCCC1c1nc(-c2ccccc2)c[nH]1` (centres unmarked) [Compound 3, (2,2-dimethylcyclopropyl)(2-(4-phenyl-1H-imidazol-2-yl)piperidin-1-yl)methanone], the EC50 was less than 50 nM.

For the compound `CCOC1CC1C(=O)N1CCCCC1c1nc(-c2ccccc2)c[nH]1` (centres unmarked) [Compound 4, (2-ethoxycyclopropyl)(2-(4-phenyl-1H-imidazol-2-yl)piperidin-1-yl)methanone], the EC50 lay in the range of 300 to 1000 nM.

In the case of `CC1CC1C(=O)N1CCCCC1c1nc(-c2ccccc2)c[nH]1` (centres unmarked) [Compound 6, (2-methylcyclopropyl)(2-(4-phenyl-1H-imidazol-2-yl)piperidin-1-yl)methanone], the EC50 is 50 to 300 nM.

Regarding `CC1CC(C(=O)N2CCCCC2c2nc(-c3ccccc3)c[nH]2)CO1` (centres unmarked) [Compound 7, (5-methyltetrahydrofuran-3-yl)(2-(4-phenyl-1H-imidazol-2-yl)piperidin-1-yl)methanone], the EC50 lay within 1000 to 35000 nM.

With `C/C=C(\C)C(=O)N1CCCCC1c1ncc(-c2ccc(F)c(F)c2)[nH]1` (centres unmarked) [Compound 8, (E)-1-(2-(5-(3,4-difluorophenyl)-1H-imidazol-2-yl)piperidin-1-yl)-2-methylbut-2-en-1-one], the 50% effective concentration (EC50) is 50 to 300 nM.

As for `C/C=C(\C)C(=O)N1CCCCC1c1ncc(-c2ccc(C)cc2)[nH]1` (centres unmarked) [Compound 9, (E)-2-methyl-1-(2-(5-(p-tolyl)-1H-imidazol-2-yl)piperidin-1-yl)but-2-en-1-one], the half-maximal effective concentration (EC50) is less than 50 nM.

For the compound `C/C=C/C(C)C(=O)N1CCCCC1c1ncc(-c2ccc(C)cc2)[nH]1` (centres unmarked) [Compound 10, (E)-2-methyl-1-(2-(5-(p-tolyl)-1H-imidazol-2-yl)piperidin-1-yl)pent-3-en-1-one], the EC50 was less than 50 nM.

Regarding `CS[C@@H](C)C(=O)N1CCCC[C@@H]1c1ncc(-c2ccc(C)cc2)[nH]1` [Compound 12, (S)-2-(methylthio)-1-((R)-2-(5-(p-tolyl)-1H-imidazol-2-yl)piperidin-1-yl)propan-1-one], the 50% effective concentration (EC50) was less than 50 nM.

Turning to `CS[C@@H](C)C(=O)N1CCCC[C@H]1c1ncc(-c2ccc(C)cc2)[nH]1` [Compound 13, (S)-2-(methylthio)-1-((S)-2-(5-(p-tolyl)-1H-imidazol-2-yl)piperidin-1-yl)propan-1-one], the concentration for a half-maximal effect (EC50) was in the range of 50 to 300 nM.

For the compound `Cc1ccc(-c2cnc(C3CCCCN3C(=O)C3CCOC3)[nH]2)cc1` (centres unmarked) [Compound 14, (tetrahydrofuran-3-yl)(2-(5-(p-toly)-1H-imidazol-2-yl)piperidin-1-yl)methanone], the EC50 fell in the range of 300 to 1000 nM.

On to `CSC(C)C(=O)N1CCCCC1c1nc2ccccc2[nH]1` (centres unmarked) [Compound 15, 1-(2-(1H-benzo[d]imidazol-2-yl)piperidin-1-yl)-2-(methylthio)propan-1-one], for which the EC50 is 1000 to 35000 nM.

`CSC(C)C(=O)N1CCCCC1c1nc(-c2cnn(C)c2)c[nH]1` (centres unmarked) [Compound 16, 1-(2-(4-(1-methyl-1H-pyrazol-4-yl)-1H-imidazol-2-yl)piperidin-1-yl)-2-(methylthio)propan-1-one]: the 50% effective concentration (EC50) is 300 to 1000 nM.

In the case of `CSC(C)C(=O)N1CCCCC1c1nc(-c2ccc3c(c2)OC(F)(F)O3)c[nH]1` (centres unmarked) [Compound 17, 1-(2-(4-(2,2-difluorobenzo[d][1,3]dioxol-5-yl)-1H-imidazol-2-yl)piperidin-1-yl)-2-(methylthio)propan-1-one], the EC50 is less than 50 nM.

As for `CSC(C)C(=O)N1CCCCC1c1nc(-c2ccc3c(c2)CCO3)c[nH]1` (centres unmarked) [Compound 18, 1-(2-(4-(2,3-dihydrobenzofuran-5-yl)-1H-imidazol-2-yl)piperidin-1-yl)-2-(methylthio)propan-1-one], the EC50 is less than 50 nM.

With `CSC(C)C(=O)N1CCCCC1c1nc(-c2ccc3c(c2)OCC3)c[nH]1` (centres unmarked) [Compound 19, 1-(2-(4-(2,3-dihydrobenzofuran-6-yl)-1H-imidazol-2-yl)piperidin-1-yl)-2-(methylthio)propan-1-one], the EC50 was less than 50 nM.

Consider `CSC(C)C(=O)N1CCCCC1c1nc(-c2cc(C)ccc2C)c[nH]1` (centres unmarked) [Compound 20, 1-(2-(4-(2,5-dimethylphenyl)-1H-imidazol-2-yl)piperidin-1-yl)-2-(methylthio)propan-1-one], for which the concentration for a half-maximal effect (EC50) was 300 to 1000 nM.

Turning to `CSC(C)C(=O)N1CCCCC1c1nc(-c2ccccc2Cl)c[nH]1` (centres unmarked) [Compound 21, 1-(2-(4-(2-chlorophenyl)-1H-imidazol-2-yl)piperidin-1-yl)-2-(methylthio)propan-1-one], the EC50 is less than 50 nM.

Take `CSC(C)C(=O)N1CCCCC1c1nc(-c2cnc(C3CC3)o2)c[nH]1` (centres unmarked) [Compound 22, 1-(2-(4-(2-cyclopropyloxazol-5-yl)-1H-imidazol-2-yl)piperidin-1-yl)-2-(methylthio)propan-1-one]: the half-maximal effective concentration (EC50) lay in the range of 50 to 300 nM.

In the case of `CSC(C)C(=O)N1CCCCC1c1nc(-c2ccccc2F)c[nH]1` (centres unmarked) [Compound 23, 1-(2-(4-(2-fluorophenyl)-1H-imidazol-2-yl)piperidin-1-yl)-2-(methylthio)propan-1-one], the concentration for a half-maximal effect (EC50) is less than 50 nM.

As to `CSC(C)C(=O)N1CCCCC1c1nc(-c2ccccc2O)c[nH]1` (centres unmarked) [Compound 24, 1-(2-(4-(2-hydroxyphenyl)-1H-imidazol-2-yl)piperidin-1-yl)-2-(methylthio)propan-1-one], the concentration giving a half-maximal response (EC50) fell in the range of 50 to 300 nM.

For `CSC(C)C(=O)N1CCCCC1c1nc(-c2cccc(CN(C)C)c2)c[nH]1` (centres unmarked) [Compound 25, 1-(2-(4-(3-((dimethylamino)methyl)phenyl)-1H-imidazol-2-yl)piperidin-1-yl)-2-(methylthio)propan-1-one], the concentration for a half-maximal effect (EC50) lay within 300 to 1000 nM.

For the compound `CSC(C)C(=O)N1CCCCC1c1nc(-c2cc(F)cc(F)c2)c[nH]1` (centres unmarked) [Compound 26, 1-(2-(4-(3,5-difluorophenyl)-1H-imidazol-2-yl)piperidin-1-yl)-2-(methylthio)propan-1-one], the EC50 is less than 50 nM.

Take `CSC(C)C(=O)N1CCCCC1c1nc(-c2c(C)noc2C)c[nH]1` (centres unmarked) [Compound 27, 1-(2-(4-(3,5-dimethylisoxazol-4-yl)-1H-imidazol-2-yl)piperidin-1-yl)-2-(methylthio)propan-1-one]: the 50% effective concentration (EC50) was in the range of 1000 to 35000 nM.

With `CSC(C)C(=O)N1CCCCC1c1nc(-c2ccc(C)c(Cl)c2)c[nH]1` (centres unmarked) [Compound 28, 1-(2-(4-(3-chloro-4-methylphenyl)-1H-imidazol-2-yl)piperidin-1-yl)-2-(methylthio)propan-1-one], the 50% effective concentration (EC50) is less than 50 nM.

For `CSC(C)C(=O)N1CCCCC1c1nc(-c2occc2C)c[nH]1` (centres unmarked) [Compound 29, 1-(2-(4-(3-methylfuran-2-yl)-1H-imidazol-2-yl)piperidin-1-yl)-2-(methylthio)propan-1-one], the 50% effective concentration (EC50) was 50 to 300 nM.

As for `CSC(C)C(=O)N1CCCCC1c1nc(-c2ccc(CN3CCS(=O)(=O)CC3)cc2)c[nH]1` (centres unmarked) [Compound 30, 1-(2-(4-(4-((1,1-dioxidothiomorpholino)methyl)phenyl)-1H-imidazol-2-yl)piperidin-1-yl)-2-(methylthio)propan-1-one], the 50% effective concentration (EC50) is 1000 to 35000 nM.

Regarding `CSC(C)C(=O)N1CCCCC1c1nc(-c2ccc(C(C)O)cc2)c[nH]1` (centres unmarked) [Compound 31, 1-(2-(4-(4-(1-hydroxyethyl)phenyl)-1H-imidazol-2-yl)piperidin-1-yl)-2-(methylthio)propan-1-one], the EC50 fell in the range of 50 to 300 nM.

As for `CSC(C)C(=O)N1CCCCC1c1nc(-c2ccc(OC(F)F)c(F)c2)c[nH]1` (centres unmarked) [Compound 32, 1-(2-(4-(4-(difluoromethoxy)-3-fluorophenyl)-1H-imidazol-2-yl)piperidin-1-yl)-2-(methylthio)propan-1-one], the EC50 is less than 50 nM.

Regarding `CSC(C)C(=O)N1CCCCC1c1nc(-c2cscc2C(F)F)c[nH]1` (centres unmarked) [Compound 33], the concentration giving a half-maximal response (EC50) was 50 to 300 nM.

Consider `CSC(C)C(=O)N1CCCCC1c1nc(-c2ccc(S(C)(=O)=O)cc2)c[nH]1` (centres unmarked) [Compound 34, 1-(2-(4-(4-(methylsulfonyl)phenyl)-1H-imidazol-2-yl)piperidin-1-yl)-2-(methylthio)propan-1-one], for which the EC50 lay within 1000 to 35000 nM.

For `CSC(C)C(=O)N1CCCCC1c1nc(-c2ccc(S(C)(=O)=O)cc2)c[nH]1` (centres unmarked) [Compound 35], the 50% effective concentration (EC50) was 1000 to 35000 nM.
